For one assay, the target named is T1, delF508-CFTR (Homo sapiens, UniProt P13569, DEL508-508).
T1 construct: functional activity of the CFTR channel (Chloride ion transport) in patient derived primary human bronchial epithelial cells; host or cells: patient-derived primary human bronchial epithelial cells (delF508-CFTR)
Description: Measurement of delF508-CFTR functional activity in primary human bronchial epithelial cells (HBECs) using Multi-Transepithelial Clamp Circuit (MTECC-24) assay. The class given is cell-based. As to conditions: primary CF HBECs; for MTECC24 CFHBEC- Amax %: test compound added 24h before assay plus potentiator, relative to reference combination (2 μM corrector + 0.5 μM potentiator); for EC50: test compound added 24h before assay, in the presence of potentiator, mean of at least two replicates, read-out: MTECC24 CFHBEC- EC50. The method, boiled down: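 Patient-derived primary delF508-CFTR HBECs, differentiated at air-liquid interface ~2 weeks, treated basolaterally with compound for 24 h, then apical and basolateral compound in HEPES pH 7.4 assay medium. Equivalent short-circuit current (Ieq) recorded on MTECC-24 with sequential amiloride, forskolin, potentiator and INH-172; normalized to 0.1% DMSO, EC50 from curve fit.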

Assay [1] addresses T2, horseradish peroxidase (HRP) tagged delF508-CFTR (Homo sapiens, UniProt P13569, DEL508-508).
T2 construct: expressed in transfected cells
The assay is described as follows: Measurement of delF508-CFTR-HRP surface expression in CFBE41o- cells.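 As to DelF508-CFTR-HRP Amax %: percent efficacy relative to reference corrector lumacaftor.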 To be noted: for Emax: read-out: DelF508-CFTR-HRP Amax %. It counts as cell-based. In short, it runs like this: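 CFBE41o- bronchial epithelial cells stably expressing delF508-CFTR with HRP in the fourth extracellular loop; expression induced 48h with 500 ng/mL doxycycline, then compounds added (top 10 μM, 10-point 3-fold series, ≤0.5% DMSO) for 24h at 37° C. Surface HRP measured by luminescence with cell-impermeant substrate; EC50 from logistic fit of triplicates, plate-normalized to lowest concentration; efficacy also relative to a reference corrector.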

The mark [2] stands for this setting: delF508-CFTR-HRP surface expression, CFBE41o- cells.
Where [3] appears, read: delF508-CFTR-HRP surface expression, CFBE41o- cells, read-out: DelF508-CFTR-HRP EC50.

Where two headings read alike, the source gives them in different places.

T1 sequence (P13569 with tags, fused parts or gaps DEL508-508): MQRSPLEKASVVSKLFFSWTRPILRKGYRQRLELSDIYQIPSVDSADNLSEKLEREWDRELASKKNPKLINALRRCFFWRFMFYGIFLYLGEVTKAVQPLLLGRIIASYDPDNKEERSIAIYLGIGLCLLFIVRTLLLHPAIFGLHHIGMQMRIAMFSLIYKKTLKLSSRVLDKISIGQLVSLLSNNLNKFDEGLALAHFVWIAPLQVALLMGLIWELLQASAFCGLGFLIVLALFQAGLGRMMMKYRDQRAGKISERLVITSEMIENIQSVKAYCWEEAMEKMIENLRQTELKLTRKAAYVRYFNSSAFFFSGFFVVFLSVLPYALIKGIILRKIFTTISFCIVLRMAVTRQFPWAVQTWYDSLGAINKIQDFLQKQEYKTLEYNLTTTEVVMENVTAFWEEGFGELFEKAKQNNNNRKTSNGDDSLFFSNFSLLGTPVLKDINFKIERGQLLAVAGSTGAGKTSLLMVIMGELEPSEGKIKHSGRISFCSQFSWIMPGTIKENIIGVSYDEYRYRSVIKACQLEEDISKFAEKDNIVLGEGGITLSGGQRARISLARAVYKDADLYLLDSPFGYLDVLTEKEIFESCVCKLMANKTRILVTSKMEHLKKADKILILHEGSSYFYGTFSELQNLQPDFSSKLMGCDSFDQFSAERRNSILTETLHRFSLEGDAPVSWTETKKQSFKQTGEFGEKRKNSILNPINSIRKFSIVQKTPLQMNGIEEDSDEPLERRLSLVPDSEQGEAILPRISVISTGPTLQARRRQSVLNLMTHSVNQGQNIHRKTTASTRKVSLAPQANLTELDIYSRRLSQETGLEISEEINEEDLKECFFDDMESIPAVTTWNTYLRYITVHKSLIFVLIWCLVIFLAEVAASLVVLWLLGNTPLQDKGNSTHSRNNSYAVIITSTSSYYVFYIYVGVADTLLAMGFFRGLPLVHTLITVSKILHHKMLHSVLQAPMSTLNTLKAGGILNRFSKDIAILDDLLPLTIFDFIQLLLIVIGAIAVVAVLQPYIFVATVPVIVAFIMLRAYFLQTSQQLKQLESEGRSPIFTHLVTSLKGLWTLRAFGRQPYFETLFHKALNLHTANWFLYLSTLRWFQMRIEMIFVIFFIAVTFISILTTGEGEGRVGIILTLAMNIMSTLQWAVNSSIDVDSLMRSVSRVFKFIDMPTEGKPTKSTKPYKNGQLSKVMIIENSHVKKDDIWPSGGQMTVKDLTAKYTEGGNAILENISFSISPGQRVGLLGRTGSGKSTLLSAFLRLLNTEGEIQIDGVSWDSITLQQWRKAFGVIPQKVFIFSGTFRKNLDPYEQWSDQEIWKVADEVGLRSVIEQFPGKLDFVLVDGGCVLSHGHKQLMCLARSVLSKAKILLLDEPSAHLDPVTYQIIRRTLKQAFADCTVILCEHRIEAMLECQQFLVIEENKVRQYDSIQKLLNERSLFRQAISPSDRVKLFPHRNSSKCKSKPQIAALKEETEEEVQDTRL
T2 sequence (P13569 with tags, fused parts or gaps DEL508-508): as above

For `Cc1c(F)cccc1-c1nc(NS(=O)(=O)c2cccc(N3CCN(C4CC4)CC3)n2)ccc1Cl` [Example 141, N-(5-chloro-6-(3-fluoro-2-methylphenyl)pyridin-2-yl)-6-(4-cyclopropylpiperazin-1-yl)pyridine-2-sulfonamide], the “MTECC24 CFHBEC- Amax %” value on delF508-CFTR is recorded as 88.7%. The results for the EC50 (at delF508-CFTR; in assay [1] (setting [3])) were 0.0086 µM and 2.02 µM, respectively. The Emax in assay [1] (setting [2]) turned out to be 938%.

`Cc1ccc(F)cc1-c1nc(NS(=O)(=O)c2cccc(N3CC(O)C3)n2)ccc1Cl` [Example 234, N-(5-chloro-6-(5-fluoro-2-methylphenyl)pyridin-2-yl)-6-(3-hydroxyazetidin-1-yl)pyridine-2-sulfonamide]: at delF508-CFTR, the “MTECC24 CFHBEC- Amax %” value was 84.0% and the half-maximal effective concentration (EC50) (as a rule, the concentration giving half of the maximal effect) was determined as 0.0113 µM. Also, the Emax in assay [1] (setting [2]) stood at 513%. The EC50 in assay [1] (setting [3]) turned out to be 1.93 µM.

For `Cc1ccccc1-c1nc(NS(=O)(=O)c2cccc(N3C4CCCC3CC(C(=O)O)C4)n2)ccc1C(F)(F)F` (stereo not drawn) [Example 345, 9-(6-{[6-(2-methylphenyl)-5-(trifluoromethyl)pyridin-2-yl]sulfamoyl}pyridin-2-yl)-9-azabicyclo[3.3.1]nonane-3-carboxylic Acid], at delF508-CFTR, the “MTECC24 CFHBEC- Amax %” value came to 90.4% and the EC50 amounted to 0.0415 µM. In addition, the EC50 in assay [1] stood at 1.33 µM. For the same molecule, the Emax in assay [1] (CFBE41o-) was found to be 557%.

With `Cc1ccc(F)cc1-c1nc(NS(=O)(=O)c2cccc(N3CCC(C(=O)O)C3)n2)ccc1C(F)(F)F` (stereo not drawn) [Example 300, 1-(6-(N-(6-(5-fluoro-2-methylphenyl)-5-(trifluoromethyl)pyridin-2-yl)sulfamoyl)pyridin-2-yl) pyrrolidine-3-carboxylic Acid], at delF508-CFTR, the “MTECC24 CFHBEC- Amax %” value worked out at 43.5% and the EC50 worked out at 0.0128 µM. In assay [1] (setting [2]), the Emax was 626%. For the same molecule, the EC50 in assay [1] (setting [3]) amounted to 3.27 µM.

Take `Cc1ccc(F)cc1-c1nc(NS(=O)(=O)c2ccnc(N3CC(O)C3)c2)ccc1C(F)(F)F` [Example 324, N-(6-(5-fluoro-2-methylphenyl)-5-(trifluoromethyl)pyridin-2-yl)-2-(3-hydroxyazetidin-1-yl)pyridine-4-sulfonamide]: at delF508-CFTR, the “MTECC24 CFHBEC- Amax %” value was found to be 49.4% and the EC50 was 0.0479 µM. The Emax in assay [1] (setting [2]) stood at 402%. Besides, the EC50 in assay [1] (setting [3]) came out at 2.64 µM.

In the case of `Cc1c(F)cccc1-c1nc(NS(=O)(=O)c2cccc(N)n2)ccc1C(F)(F)F` [Example 7, 6-amino-N-(6-(3-fluoro-2-methylphenyl)-5-(trifluoromethyl)pyridin-2-yl)pyridine-2-sulfonamide], on delF508-CFTR, the “MTECC24 CFHBEC- Amax %” value is reported as 66.8% and the EC50 stood at 0.0027 µM. Further, the Emax in assay [1] (setting [2]) was 610%. In addition, in assay [1] (setting [3]), the EC50 is 1.63 µM.

`Cc1ccc(F)cc1-c1nc(NS(=O)(=O)c2cccc(N)n2)ccc1C(F)(F)F` [Example 1, 6-amino-N-(6-(5-fluoro-2-methylphenyl)-5-(trifluoromethyl)pyridin-2-yl)pyridine-2-sulfonamide]: at delF508-CFTR, the “MTECC24 CFHBEC- Amax %” value is 78.9% and the EC50 was 0.004 µM. Also, in assay [1] (setting [2]), the Emax is 867%. For the same molecule, the EC50 in assay [1] (setting [3]) amounted to 1.78 µM.

For the molecule `Cc1cccc(C)c1-c1nc(NS(=O)(=O)c2cccc(N3CCN(C)CC3=O)n2)ccc1Cl` [Example 197, N-(5-chloro-6-(2,6-dimethylphenyl)pyridin-2-yl)-6-(4-methyl-2-oxopiperazin-1-yl)pyridine-2-sulfonamide], on delF508-CFTR, the “MTECC24 CFHBEC- Amax %” value is on record as 73.9% and the EC50 was 0.067 µM. In addition, in assay [1] (setting [2]), the Emax came to 500%. In addition, the EC50 in assay [1] (setting [3]) was found to be 3.65 µM.

As to `Cc1c(C#N)cccc1-c1nc(NS(=O)(=O)c2cccc(N3CC(C)(O)C3)n2)ccc1C(F)(F)F` [Example 308, N-(6-(3-cyano-2-methylphenyl)-5-(trifluoromethyl)pyridin-2-yl)-6-(3-hydroxy-3-methylazetidin-1-yl)pyridine-2-sulfonamide], on delF508-CFTR, the “MTECC24 CFHBEC- Amax %” value is listed as 60.7% and the EC50 was found to be 0.207 µM. Also, the Emax in assay [1] (setting [2]) is 233%. Moreover, the EC50 in assay [1] (setting [3]) was 3.75 µM.

For the origin of these results see US11066369B2, “N-(pyridin-2-yl)pyridine-sulfonamide derivatives and their use in the treatment of disease” (Novartis AG, priority 2016, dated 2021).
